Measured values published in patent publication US20240252488A1 (KOREA RESEARCH INSTITUTE OF CHEMICAL TECHNOLOGY, priority 2020, published 2024).

Columns and labels:
MLKL [1] = molecular target: T1, MLKL (Homo sapiens, UniProt Q8NB16); experiment: MLKL degradation assay in HepG2 cell line (western blot); assay type: cell-based; set-up: endogenous in cells; host or cells: HepG2 or HaCaT; conditions: cell line not given; for Degradation assay (Degradation %) 1 μM: compound 1 μM; for Degradation assay (Degradation %) 10 μM: compound 10 μM
T1 sequence (Q8NB16 1-471): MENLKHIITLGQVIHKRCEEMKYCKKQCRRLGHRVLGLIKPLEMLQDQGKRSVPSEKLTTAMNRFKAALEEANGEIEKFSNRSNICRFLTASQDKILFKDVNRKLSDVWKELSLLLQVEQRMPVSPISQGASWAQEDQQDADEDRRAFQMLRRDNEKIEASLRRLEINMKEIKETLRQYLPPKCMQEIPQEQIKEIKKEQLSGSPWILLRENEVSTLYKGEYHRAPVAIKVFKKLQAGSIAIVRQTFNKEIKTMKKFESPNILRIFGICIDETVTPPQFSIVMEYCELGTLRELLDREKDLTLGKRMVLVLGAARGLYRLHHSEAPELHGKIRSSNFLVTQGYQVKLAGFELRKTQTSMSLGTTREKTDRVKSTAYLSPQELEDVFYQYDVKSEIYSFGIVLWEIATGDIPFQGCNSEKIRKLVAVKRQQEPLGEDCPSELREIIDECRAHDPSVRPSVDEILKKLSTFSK
Outline: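 Western blot chemiluminescence of MLKL in equal-protein lysates (10-15 μg, BCA-adjusted). Before lysis, HepG2 cells were exposed to 1 or 10 μM (final) test compound for 20-24 h at 37 °C.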

MLKL [2] = molecular target: T1, MLKL; experiment: Measurement of binding affinity with MLKL receptor (competitive binding assay, Kd); set-up: made in house; host or cells: HEK 293 cell line (T7 phage in E. coli BL21-derived host is also described)
Outline: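 Kd from an immobilized-ligand competition format: the DNA-tagged kinase from HEK 293 expression is eluted and quantified by qPCR. Compounds added from 111× DMSO stocks, final DMSO 0.9%.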

FADD−/− Jurkat cells = experiment: Necroptosis inhibition assay, TNF-α-induced necroptosis (CellTiter-Glo 2.0); assay type: cell-based, human; conditions: TNF-α 15 ng/mL; for Necroptosis inhibition assay (Rescue %) 1 μM: compound 1 μM; for Necroptosis inhibition assay (Rescue %) 10 μM: compound 10 μM
Outline: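 Necroptosis induced by 15 ng/mL TNF-α (final) for 20–24 h at 37 °C, after a 30 min room-temperature pretreatment of FADD-deficient Jurkat cells with 0.1, 1 or 10 μM compound. ATP-based luminescence gave viability, from which inhibition rate and cytotoxicity were derived.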

Structure (SMILES)	Degradation assay (Degradation %) 1 μM (MLKL [1])	Kd (MLKL [2])	Necroptosis inhibition assay (Rescue %) 1 μM (FADD−/− Jurkat cells)	Necroptosis inhibition assay (Rescue %) 10 μM (FADD−/− Jurkat cells)	Degradation assay (Degradation %) 10 μM (MLKL [1])
Nc1ncc(-c2cnn(C3CCN(CCCN4CCN(C(=O)C5CCN(c6ccc7c(c6)C(=O)N(C6CCC(=O)NC6=O)C7=O)CC5)CC4)CC3)c2)nc1C(=O)OC(C(=O)Nc1ccc(F)cc1)c1ccccc1 (stereo not drawn) [TDH-240, 2-((4-fluorophenyl)amino)-2-oxo-1-phenylethyl 3-amino-6-(1-(1-(3-(4-(1-(2-(2,6-dioxopiperidin-3-yl)-1,3-dioxoisoindolin-5-yl)piperidine-4-carbonyl)piperazin-1-yl)propyl)piperidin-4-yl)-1H-pyrazol-4-yl)pyrazine-2-carboxylate]	88.47%	4.2 nM	43.23%	14.03%	
Nc1ncc(-c2cnn(C3CCN(CCCN4CCN(C(=O)CNc5cccc6c5C(=O)N(C5CCC(=O)NC5=O)C6=O)CC4)CC3)c2)nc1C(=O)OC(C(=O)Nc1ccc(F)cc1)c1ccccc1 (stereo not drawn) [TDH-241, 2-((4-fluorophenyl)amino)-2-oxo-1-phenylethyl 3-amino-6-(1-(1-(3-(4-((2-(2,6-dioxopiperidin-3-yl)-1,3-dioxoisoindolin-4-yl)glycyl)piperazin-1-yl)propyl)piperidin-4-yl)-1H-pyrazol-4-yl)pyrazine-2-carboxylate]	64.55%	2.9 nM	50.09%	28.85%	64.03%
Nc1ncc(-c2cnn(C3CCN(CCCN4CCN(C(=O)CNc5ccc6c(c5)C(=O)N(C5CCC(=O)NC5=O)C6=O)CC4)CC3)c2)nc1C(=O)OC(C(=O)Nc1ccc(F)cc1)c1ccccc1 (stereo not drawn) [TDH-242, 2-((4-fluorophenyl)amino)-2-oxo-1-phenylethyl 3-amino-6-(1-(1-(3-(4-((2-(2,6-dioxopiperidin-3-yl)-1,3-dioxoisoindolin-5-yl)glycyl)piperazin-1-yl)propyl)piperidin-4-yl)-1H-pyrazol-4-yl)pyrazine-2-carboxylate]	75.75%	2.5 nM	71.4%	44.8%	66.84%
Nc1ncc(-c2cnn(C3CCN(CCCN4CCN(C(=O)COc5cccc6c5C(=O)N(C5CCC(=O)NC5=O)C6=O)CC4)CC3)c2)nc1C(=O)OC(C(=O)Nc1ccc(F)cc1)c1ccccc1 (stereo not drawn) [TDH-243, 2-((4-fluorophenyl)amino)-2-oxo-1-phenylethyl 3-amino-6-(1-(1-(3-(4-(2-((2-(2,6-dioxopiperidin-3-yl)-1,3-dioxoisoindolin-4-yl)oxy)acetyl)piperazin-1-yl)propyl)piperidin-4-yl)-1H-pyrazol-4-yl)pyrazine-2-carboxylate]	57.14%	0.94 nM	61.25%	53.31%	54.82%
Nc1ncc(-c2cnn(C3CCN(CCCN4CCN(C(=O)COc5ccc6c(c5)C(=O)N(C5CCC(=O)NC5=O)C6=O)CC4)CC3)c2)nc1C(=O)OC(C(=O)Nc1ccc(F)cc1)c1ccccc1 (stereo not drawn) [TDH-244, 2-((4-fluorophenyl)amino)-2-oxo-1-phenylethyl 3-amino-6-(1-(1-(3-(4-(2-((2-(2,6-dioxopiperidin-3-yl)-1,3-dioxoisoindolin-5-yl)oxy)acetyl)piperazin-1-yl)propyl)piperidin-4-yl)-1H-pyrazol-4-yl)pyrazine-2-carboxylate]	75.95%	1.3 nM	92.11%	65.67%	66.16%
Nc1ncc(-c2cnn(C3CCN(CCCN4CCN(c5cccc6c5C(=O)N(C5CCC(=O)NC5=O)C6=O)CC4)CC3)c2)nc1C(=O)OC(C(=O)Nc1ccc(F)cc1)c1ccccc1 (stereo not drawn) [TDH-245, 2-((4-fluorophenyl)amino)-2-oxo-1-phenylethyl 3-amino-6-(1-(1-(3-(4-(2-(2,6-dioxopiperidin-3-yl)-1,3-dioxoisoindolin-4-yl)piperazin-1-yl)propyl)piperidin-4-yl)-1H-pyrazol-4-yl)pyrazine-2-carboxylate]	67.67%	3.6 nM	65.75%	14.51%	62.75%
Nc1ncc(-c2cnn(C3CCN(CCCN4CCN(c5ccc6c(c5)C(=O)N(C5CCC(=O)NC5=O)C6=O)CC4)CC3)c2)nc1C(=O)OC(C(=O)Nc1ccc(F)cc1)c1ccccc1 (stereo not drawn) [TDH-246, 2-((4-fluorophenyl)amino)-2-oxo-1-phenylethyl 3-amino-6-(1-(1-(3-(4-(2-(2,6-dioxopiperidin-3-yl)-1,3-dioxoisoindolin-5-yl)piperazin-1-yl)propyl)piperidin-4-yl)-1H-pyrazol-4-yl)pyrazine-2-carboxylate]	66.35%	3.3 nM	60.97%	26.97%	46.78%
Nc1ncc(-c2cnn(C3CCN(CCOC4CCN(C(=O)C5CCN(c6cccc7c6C(=O)N(C6CCC(=O)NC6=O)C7=O)CC5)CC4)CC3)c2)nc1C(=O)OC(C(=O)Nc1ccc(F)cc1)c1ccccc1 (stereo not drawn) [TDH-247, 2-((4-fluorophenyl)amino)-2-oxo-1-phenylethyl 3-amino-6-(1-(1-(2-((1-(1-(2-(2,6-dioxopiperidin-3-yl)-1,3-dioxoisoindolin-4-yl)piperidine-4-carbonyl)piperidin-4-yl)oxy)ethyl)piperidin-4-yl)-1H-pyrazol-4-yl)pyrazine-2-carboxylate]	64.32%	4.6 nM	40.99%	33.69%	45.04%
Nc1ncc(-c2cnn(C3CCN(CCOC4CCN(C(=O)C5CCN(c6ccc7c(c6)C(=O)N(C6CCC(=O)NC6=O)C7=O)CC5)CC4)CC3)c2)nc1C(=O)OC(C(=O)Nc1ccc(F)cc1)c1ccccc1 (stereo not drawn) [TDH-248, 2-((4-fluorophenyl)amino)-2-oxo-1-phenylethyl 3-amino-6-(1-(1-(2-((1-(1-(2-(2,6-dioxopiperidin-3-yl)-1,3-dioxoisoindolin-5-yl)piperidine-4-carbonyl)piperidin-4-yl)oxy)ethyl)piperidin-4-yl)-1H-pyrazol-4-yl)pyrazine-2-carboxylate]	47.44%	8.5 nM	72.38%	51.46%	14.59%
Nc1ncc(-c2cnn(C3CCN(CCOC4CCN(C(=O)CNc5cccc6c5C(=O)N(C5CCC(=O)NC5=O)C6=O)CC4)CC3)c2)nc1C(=O)OC(C(=O)Nc1ccc(F)cc1)c1ccccc1 (stereo not drawn) [TDH-249, 2-((4-fluorophenyl)amino)-2-oxo-1-phenylethyl 3-amino-6-(1-(1-(2-((1-((2-(2,6-dioxopiperidin-3-yl)-1,3-dioxoisoindolin-4-yl)glycyl)piperidin-4-yl)oxy)ethyl)piperidin-4-yl)-1H-pyrazol-4-yl)pyrazine-2-carboxylate]	35.81%	5.4 nM	45.5%	44.81%	28.42%
Nc1ncc(-c2cnn(C3CCN(CCOC4CCN(C(=O)CNc5ccc6c(c5)C(=O)N(C5CCC(=O)NC5=O)C6=O)CC4)CC3)c2)nc1C(=O)OC(C(=O)Nc1ccc(F)cc1)c1ccccc1 (stereo not drawn) [TDH-250, 2-((4-fluorophenyl)amino)-2-oxo-1-phenylethyl 3-amino-6-(1-(1-(2-((1-((2-(2,6-dioxopiperidin-3-yl)-1,3-dioxoisoindolin-5-yl)glycyl)piperidin-4-yl)oxy)ethyl)piperidin-4-yl)-1H-pyrazol-4-yl)pyrazine-2-carboxylate]	78.33%	4.9 nM	69.46%	46.6%	71.54%
